Test results as given in PMC9621233, “4-Cyanamidobenzenesulfonamide derivatives: a novel class of human and bacterial carbonic anhydrase inhibitors” (Journal of Enzyme Inhibition and Medicinal Chemistry, 2022).

How the values were obtained:
Assay in all cases: stopped-flow CO2 hydration assay, phenol red
StCA1 = target: T1, StCA1; type: biochemical, Salmonella enterica subsp. enterica serovar Typhimurium; settings: […] TRIS pH […] Na2SO4, […] h preincubation, room temperature; read-out: KI (nM)^a / StCA1 (β-CA)
T1 construct: recombinant beta-CA, obtained in-house

hCA VII = target: T2, hCA VII (Homo sapiens, UniProt P43166); type: biochemical; settings: read-out: KI (nM)^a / hCA VII (α-CA)
T2 construct: gene CA7; recombinant, obtained in-house; cytosolic alpha-CA
T2 sequence (P43166 whole entry): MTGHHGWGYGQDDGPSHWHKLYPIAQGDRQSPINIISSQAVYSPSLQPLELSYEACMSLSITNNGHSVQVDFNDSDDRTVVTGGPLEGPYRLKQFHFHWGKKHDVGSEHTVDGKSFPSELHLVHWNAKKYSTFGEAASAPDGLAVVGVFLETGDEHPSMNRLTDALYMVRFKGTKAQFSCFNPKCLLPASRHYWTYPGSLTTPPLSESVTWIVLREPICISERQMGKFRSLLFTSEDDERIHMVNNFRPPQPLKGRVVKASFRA
Excerpt: stopped-flow CO2 hydration assay, phenol red on hCA VII

hCA I = target: T3, hCA I (Homo sapiens, UniProt P00915); type: biochemical; settings: read-out: KI (nM)^a / hCA I (α-CA)
T3 construct: gene CA1; recombinant, obtained in-house; cytosolic alpha-CA
T3 sequence (P00915 2-261): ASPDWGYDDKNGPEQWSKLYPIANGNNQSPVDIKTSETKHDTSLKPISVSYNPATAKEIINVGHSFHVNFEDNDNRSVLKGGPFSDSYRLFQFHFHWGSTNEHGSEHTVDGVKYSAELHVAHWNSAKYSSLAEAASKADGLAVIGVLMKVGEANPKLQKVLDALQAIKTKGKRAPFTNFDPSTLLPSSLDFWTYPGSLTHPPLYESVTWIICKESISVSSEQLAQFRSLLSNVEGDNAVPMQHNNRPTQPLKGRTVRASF
Excerpt: stopped-flow CO2 hydration assay, phenol red on hCA I

hCA XIII = target: T4, hCA XIII (Homo sapiens, UniProt Q8N1Q1); type: biochemical; settings: read-out: KI (nM)^a / hCA XIII (α-CA)
T4 construct: gene CA13; recombinant, obtained in-house; cytosolic alpha-CA
T4 sequence (Q8N1Q1 whole entry): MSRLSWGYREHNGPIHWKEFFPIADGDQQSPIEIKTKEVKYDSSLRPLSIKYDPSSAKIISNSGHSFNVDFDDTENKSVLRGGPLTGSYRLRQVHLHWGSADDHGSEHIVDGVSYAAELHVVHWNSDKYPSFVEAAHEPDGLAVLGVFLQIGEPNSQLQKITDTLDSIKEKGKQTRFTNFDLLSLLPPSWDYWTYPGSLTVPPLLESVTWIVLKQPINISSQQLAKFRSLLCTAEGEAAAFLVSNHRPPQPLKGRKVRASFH
Excerpt: stopped-flow CO2 hydration assay, phenol red on hCA XIII

hCA II = target: T5, hCA II (Homo sapiens, UniProt P00918); type: biochemical; settings: read-out: KI (nM)^a / hCA II (α-CA)
T5 construct: gene CA2; recombinant, obtained in-house; cytosolic alpha-CA
Excerpt: stopped-flow CO2 hydration assay, phenol red on hCA II

MscCA = target: T6, MscCA; type: biochemical, Mammaliicoccus sciuri; settings: […] TRIS pH […] Na2SO4, […] h preincubation, room temperature; read-out: KI (nM)^a / MscCA (β-CA)
T6 construct: recombinant beta-CA, obtained in-house; earlier published as SauCA

StCA2 = target: T7, StCA2; type: biochemical, Salmonella enterica subsp. enterica serovar Typhimurium; settings: […] TRIS pH […] Na2SO4, […] h preincubation, room temperature; read-out: KI (nM)^a / StCA2 (β-CA)
T7 construct: recombinant beta-CA, obtained in-house

| Compound | Ki (StCA1) | Ki (hCA VII) | Ki (hCA I) | Ki (hCA XIII) | Ki (hCA II) | Ki (MscCA) | Ki (StCA2) |
| --- | --- | --- | --- | --- | --- | --- | --- |
| CN(C#N)c1ccc(S(N)(=O)=O)cc1 [compound 8, 4-(N-Methylcyanamido)benzenesulfonamide] | 52.7 nM | 13.8 nM | 557 nM | 117 nM | 29.2 nM | 1580 nM | 200 nM |
| CCN(C#N)c1ccc(S(N)(=O)=O)cc1 [compound 9, 4-(N-Ethylcyanamido)benzenesulfonamide] | 61.5 nM | 17.9 nM | 88.6 nM | 476 nM | 45.3 nM | 3150 nM | 367 nM |
| CCCCN(C#N)c1ccc(S(N)(=O)=O)cc1 [compound 10, 4-(N-Butylcyanamido)benzenesulfonamide] | 62.7 nM | 1.3 nM | 16.4 nM | 70.7 nM | 32 nM | 4480 nM | 426 nM |
| CCCCCCN(C#N)c1ccc(S(N)(=O)=O)cc1 [compound 11, 4-(N-Hexylcyanamido)benzenesulfonamide] | 54.6 nM | 1.5 nM | 9.3 nM | 83 nM | 5.3 nM | 6880 nM | 718 nM |
| CCCCCCCN(C#N)c1ccc(S(N)(=O)=O)cc1 [compound 12, 4-(N-Heptylcyanamido)benzenesulfonamide] | 58.8 nM | 1.7 nM | 38.2 nM | 31.5 nM | 7.1 nM | 7190 nM | 676 nM |
| CCCCCCCCCCCCCCCCCCN(C#N)c1ccc(S(N)(=O)=O)cc1 [compound 13, 4-(N-Octadecylcyanamido)benzenesulfonamide] | 66.1 nM | 2.2 nM | 17.3 nM | 155 nM | 9.5 nM | 9170 nM | 791 nM |
| N#CN(c1ccc(S(N)(=O)=O)cc1)C1CCCCC1 [compound 14, 4-(N-Cyclohexylcyanamido)benzenesulfonamide] | 69.5 nM | 1.9 nM | 50.6 nM | 83.8 nM | 82.3 nM | 5360 nM | 579 nM |
| C=CCN(C#N)c1ccc(S(N)(=O)=O)cc1 [compound 15, 4-(N-Allylcyanamido)benzenesulfonamide] | 51.2 nM | 2.3 nM | 74.7 nM | 97.7 nM | 54.1 nM | 5100 nM | 645 nM |
| N#CN(Cc1ccccc1)c1ccc(S(N)(=O)=O)cc1 [compound 16, 4-(N-Benzylcyanamido)benzenesulfonamide] | 50.7 nM | 2 nM | 67.3 nM | 67.8 nM | 61.4 nM | 9360 nM | 692 nM |
| N#CN(Cc1ccc(Br)cc1)c1ccc(S(N)(=O)=O)cc1 [compound 17, 4-(N-(4-Bromobenzyl)cyanamido)benzenesulfonamide] | 73.1 nM | 2.4 nM | 389 nM | 53.1 nM | 93.3 nM | 9590 nM | 750 nM |
